Measurements published in patent publication US5885992A, “Triterpene derivative and medicinal composition” (Nippon Shinyaku Company, Limited, priority 1994, dated 1999).

Tests used:
[1] = test system: MRL/lpr mice; assay: Effect on nephritis in MRL/lpr mice: incidence of proteinuria; type: in vivo, mouse; conditions: 10 weeks; for Number of animals with proteinuria, grade 1+ (30-100 mg/dl) / Number of animals with proteinuria, grade - (negative): control 0 of 12; for Number of animals with proteinuria, grade 3+ (300-1000 mg/dl): control 1 of 12; for Number of animals with proteinuria, grade 2+ (100-300 mg/dl): control 4 of 12; for Number of animals with proteinuria, grade 4+ (>1000 mg/dl): control 7 of 12, *P < 0.05
Description: (§1) Effect on nephritis in MRL/lpr mice
(§2) The MRL/lpr mouse is a model of lupus nephritis in mice which spontaneously and secondarily develop proliferative glomerulonephritis due to autoimmune disease. Using this nephritis model, a 10-week long-term oral administration experiment with the test drugs was performed.
(§3) MRL/lpr mice purchased from Jackson Laboratory and maintained in Nippon Shinyaku Co., Ltd. were used.
(§4) A suspension of each test drug was administered orally once a day on 6 days per week from the age 8 weeks for 10 weeks. During the administration period, the semi-quantitative test for urinary protein (regent strips) was performed. At the end of the administration period, the animals were sacrificed and the kidneys were removed. The kidney was fixed in 10% phosphate-buffered formalin and, in the routine manner, paraffin sections were prepared and stained with periodic acid-Schiff stain for microscopy. For histopathological evaluation, the glomerular lesions in each tissue preparation were observed by light microscopy and graded according to the method of Berden (J. Immunology, 130, 1699-1705, 1983) and the incidence (%) of each grade was calculated for each group. Statistical analysis was performed by Mann Whitney's rank-sum test.

[2] = test system: mice; assay: Acute toxicity; type: in vivo, mouse; conditions: 2 g/kg p.o.; for Acute toxicity: abnormal findings: general condition up to 1 week; for Acute toxicity: death: observed up to 1 week
Source text: Compound No. 1 and the compound No. 9 were examined.

[3] = test system: glomeruli; assay: Effect on nephritis in MRL/lpr mice: histopathological findings of glomeruli; type: in vivo, mouse; conditions: 10 weeks; for Incidence of glomerular lesions, grade - (no remarkable change): control 1; for Incidence of glomerular lesions, grade 4+ (extremely marked change): control 8, **P < 0.01; for Incidence of glomerular lesions, grade 1+ (slight change): control 14; for Incidence of glomerular lesions, grade 3+ (marked change): control 25; for Incidence of glomerular lesions, grade 2+ (moderate change): control 52
Description: as §1, §2, §3, §4

[4] = test system: mesangial cells; assay: Effect on anti-Thy-1 antibody nephritis in rats (number of mesangial cells per glomerulus); type: in vivo, rat; conditions: 100 mg/kg p.o. once a day for 7 days, n=5, mean ± standard error, **P < 0.01, controls (distilled water): 59.5 ± 3.5 (No. 1), 61.8 ± 2.2 (No. 2), 54.8 ± 2.1 (No. 9), intact animal 43
Description: Anti-Thy-1 antibody-induced nephritis is a model of glomerulonephritis constructed by utilizing the reaction between the Thy-1 antigen occurring as a membrane protein of mesangial cells and the antibody to the antigen. In this model, injuries to mesangial cells and lesions associated with mesangial cell proliferation are found.
Preparation of anti-Thy-1 antibody
Preparation of the antibody was carried out in accordance with the method of Ishizaki et al. referred to above. Thus, an adjuvant suspension of rat thymocytes was prepared and subcutaneously administered to rabbits for immunization. After two booster doses, the blood was collected and the serum separated was subjected to inactivation and absorption to provide an antiserum (anti-Thy-1 antibody).
A predetermined amount of the antiserum was injected intravenously from the tail vein of rats to induce nephritis. Starting the following day after injection, a suspension of the test drug was administered orally once a day for 7 days. On day 8 following the beginning of administration, the animals were sacrificed and the kidneys were removed. The kidney was fixed in 10% phosphate-buffered formalin and, in the routine manner, paraffin sections were prepared and stained with periodic acid-schiff stain for microscopy. For histopathological evaluation, the number of cells in the glomeruli (mainly mesangial cells) in each tissue preparation was counted under a light microscope. Statistical analysis was performed by unpaired t-test.

[5] = test system: mesangial cells; assay: Inhibitory effect on mesangial cell proliferation in vitro; type: cell-based; conditions: Rattus norvegicus, 10 μg/ml, 72 hours, LPS-stimulated macrophage culture supernatant, crystal violet, relative to control, read-out: Inhibition rate of mesangial cell proliferation in vitro
Description: Inhibitory effect on mesangial cell proliferation in vitro
Glomeruli were isolated from the rat kidney by the sieving method. Mesangial cells were obtained from isolated these glomeruli which were maintained in culture. The mesangial cells were seeded on the plate and, after 24 hours, an LPS (lipopolysaccharide)-stimulated macrophage culture supernatant (a solution containing growth factor) and the test drug were added and the plate was incubated for 72 hours. The mesangial cells were fixed and stained with crystal violet and the absorbance was measured. The inhibitory activity of the mesangial cell proliferation of the test compound was evaluated in relative inhibition rate (%) in comparison with the absorbance of the control obtained under the same culture conditions.

In the case of `CC1(C)CC[C@]2(C(=O)O)CC[C@]3(C)C(=CC[C@@H]4[C@@]5(C)CC[C@H](O)[C@@](C)(CO)[C@@H]5CC[C@]43C)[C@@H]2C1` [Compound No. 1, 3β,23-dihydroxyolean-12-en-28-oic acid], the “Number of animals with proteinuria, grade 1+ (30-100 mg/dl)” value ([1]; 10 mg/kg p.o., n=13) is reported as 7, the “Number of animals with proteinuria, grade - (negative)” value ([1]; 10 mg/kg p.o., n=13) is reported as 0 and the “Number of animals with proteinuria, grade 3+ (300-1000 mg/dl)” value ([1]; 10 mg/kg p.o., n=13) is reported as 1. For the same compound, the “Number of animals with proteinuria, grade 2+ (100-300 mg/dl)” value ([1]; 10 mg/kg p.o., n=13) was 2, the “Number of animals with proteinuria, grade 4+ (>1000 mg/dl)” value ([1]; 10 mg/kg p.o., n=13) was 3 and the “Number of animals with proteinuria, grade 1+ (30-100 mg/dl)” value ([1]; 30 mg/kg p.o., n=14) was 4. For the same compound, the “Number of animals with proteinuria, grade - (negative)” value ([1]; 30 mg/kg p.o., n=14) was 3, the “Number of animals with proteinuria, grade 3+ (300-1000 mg/dl)” value ([1]; 30 mg/kg p.o., n=14) was 5 and the “Number of animals with proteinuria, grade 2+ (100-300 mg/dl)” value ([1]; 30 mg/kg p.o., n=14) was 0. The “Number of animals with proteinuria, grade 4+ (>1000 mg/dl)” value ([1]; 30 mg/kg p.o., n=14) was 2, the “Acute toxicity: abnormal findings” value [2] was “nor was there any abnormal findings” and the “Acute toxicity: death” value [2] was “no death was encountered”. The “Incidence of glomerular lesions, grade - (no remarkable change)” value ([3]; 10 mg/kg p.o.) was 3%, the “Incidence of glomerular lesions, grade 4+ (extremely marked change)” value ([3]; 10 mg/kg p.o.) was 2% and the “Incidence of glomerular lesions, grade 1+ (slight change)” value ([3]; 10 mg/kg p.o.) was 29%. For the same compound, the “Incidence of glomerular lesions, grade 3+ (marked change)” value ([3]; 10 mg/kg p.o.) was 9%, the “Incidence of glomerular lesions, grade 2+ (moderate change)” value ([3]; 10 mg/kg p.o.) was 57% and the “Incidence of glomerular lesions, grade - (no remarkable change)” value ([3]; 30 mg/kg p.o.) was 3%. For the same compound, the “Incidence of glomerular lesions, grade 4+ (extremely marked change)” value ([3]; 30 mg/kg p.o.) was 0%, the “Incidence of glomerular lesions, grade 1+ (slight change)” value ([3]; 30 mg/kg p.o.) was 25% and the “Incidence of glomerular lesions, grade 3+ (marked change)” value ([3]; 30 mg/kg p.o.) was 9%. For the same compound, the “Incidence of glomerular lesions, grade 2+ (moderate change)” value ([3]; 30 mg/kg p.o.) was 63% and the “Number of mesangial cells per glomerulus” value [4] was 48.2 ± 1.6.
With `CC(=O)OCCOC(=O)[C@]12CCC(C)(C)C[C@H]1C1=CC[C@@H]3[C@@]4(C)CC[C@H](O)[C@@](C)(CO)[C@@H]4CC[C@@]3(C)[C@]1(C)CC2` [Compound No. 2, 2-Acetoxyethyl 3β,23(4α)-dihydroxyolean-12-en-28-oate] the inhibition at 10 µg/mL [5] was 57.9% and the “Number of mesangial cells per glomerulus” value [4] was 50.9 ± 1.3.
With `COCCNC(=O)[C@]12CCC(C)(C)C[C@H]1C1=CC[C@@H]3[C@@]4(C)CC[C@H](O)[C@@](C)(CO)[C@@H]4CC[C@@]3(C)[C@]1(C)CC2` [Compound No. 9, N-(2-methoxyethyl)-3β,23(4α)-dihydroxyolean-12-en-28-amide] the inhibition at 10 µg/mL [5] was 43.3%, the “Acute toxicity: abnormal findings” value [2] was “nor was there any abnormal findings” and the “Acute toxicity: death” value [2] was “no death was encountered”. The “Number of mesangial cells per glomerulus” value [4] was 45.8 ± 0.7.
